Reference: patent publication US6384065B1, “Spiro compounds or salts thereof and preventives/remedies for autoimmune diseases and AP-1 inhibitors containing the same” (Toyama Chemical Co., Ltd., priority 1998, dated 2002)

What was measured:
mouse 3T3 fibroblast = experiment: XTT assay (cytotoxicity test); type: cell-based; conditions: 16 hours culture, T/C %
Protocol: (§1) A reporter plasmid was prepared according to the method of R. I. Scheinman et al. [Mol. Cell. Biol., Vol. 15, Pages 943-953 (1995)]. That is, a plasmid p(TRE)5TK-Luc was constructed by connecting a promoter of thymidine kinase (TK) at an upstream site of luciferase (Luc) gene which is a reporter gene and a 5-times repeated TRE sequence at a further upstream site thereof. The plasmid was co-transfected simultaneously with p3′SS plasmid (prepared by Stratagene Co.) by the electrotranspolation method onto mouse 3T3 fibroblast (ATCC: CCL-163) cultured in a Dulbecco's modified Eagle's medium (DMEM) containing 10% fetal calf serum (FCS). Then the cells were cultured in DMEM containing 10% FCS and 100 μg/ml of Hygromycin B. Using the expression of Hygromycin-resistant gene contained in p3′SS as an indicator, cell strains of the transfectant into which the objective plasmid had been introduced stably were selected. Furthermore in the test mentioned below, cell strains showing expression of Luc gene under stimulation of 12-O-tetradecanoylphorbol 13-acetate (TPA, prepared by Sigma Co.) were used, and DMEM containing 10% FCS and 100 μg/ml of Hygromycin B was used for the culture of cells.
The same culture plate as above was prepared, and test compound and TPA were added under the same conditions as above, after which a culture was carried out for 16 hours. The end of cluture, XTT reagent prepared according to the method of D. A. Scudievo [Cancer Res., Vol. 48, Pages 4827-4833 (1988)] was added and made to react for a prescribed period of time. Then, the amount of formazan formed by alive cells was analyzed by measuring absorbance at 450 nm using a micro plate reader. In this test, a decrease in absorbance is observed when the test compounds show a cytotoxicitic or a growth inhibitory activity. Cell viability (T/C %) was determined according to the following formula:
Cell Viability Rate (T/C %)=(Absorbance of well to which compound is added/Absorbance of well to which the compound was not added)×100
(§2) The compounds of Example No. 1, 6(3), 6(5), 13, 15, 17, 18(1), 18(8), 20(1) and 20(2) were converted to sodium salts according to the method of Example 42, and then used for the assay.

[1] = system: transcription factor AP-1; experiment: Luciferase assay (TPA-stimulated p(TRE)5TK-Luc reporter transfectant); type: cell-based; conditions: Mus musculus, TPA stimulation 16 hours, Luc activity, read-out: Inhibition rate (%); for inhibition at 30 µg/mL: 30 μg/ml test compound; for inhibition at 100 µg/mL: 100 μg/ml test compound
Protocol: as §1
The cells prepared above were suspended in culture medium, and plated 96 well-plate at 1×10^4 cells/0.1 ml. After culturing it overnight, 50 μl of test compounds solution and 40 μl of culture medium were added, and incubated. After one hour 10 μl of 200 ng/ml TPA solution was added and the culture was continued for an additional 16 hours to stimulate the cells. The end of cluture, the cells were recovered, and cell lysis solutions were obtained. The Luc activity of the cell lysates was measured with a chemilluminescent detection kit (Pica Gene; manufactured by Toyo Ink Co.). The suppressive effect of each test compound could be assessed as a decrease of Luc activity, and the inhibition rate (%) was calculated according to the following formula:
Inhibition rate (%)=(1−Luc activity of cells to which the compound is added/Luc activity of cells to which the compound is not added)×100
as §2

[2] = system: type II collagen-induced arthritis; experiment: Type II collagen-induced arthritis in mice (arthritis score, joint-bone destruction score); type: in vivo, DBA/1J mice; conditions: 100 mg/kg orally once every day from day 21 to day 35, mean
Protocol: The compound of Example 20 (1) was tested for the effect on type II collagen-induced arthritis, using 8 weeks old, male DBA/1J mice (Japan Charles River). Emulsion was prepared by mixing an equal volume of bovine type II collagen (prepared by Koken) in 0.1N acetic acid (2 mg/ml) and Freund's complete adjuvant (prepared by Nacalai Tesque). Arthritis was induced by intradermal injection of 0.2 ml (the quantity of antigen: 200 μg/head) of the emulsion into the skin of the tail root twice (day 0 and day 21). The test compound was suspended in 0.5% solution of methyl cellulose, and 100 mg/kg was orally administered once every day from day 21 to day 35. […] Severity of the arthritis was scored 0: no change, 1: only one or two swelling of the joints or slight swelling of the ankle or toes, 2: swelling and/or rubor in further joints, 3: extensive swelling of whole paw, and the maximum possible score for arthritis was 12 points. As to the severity of destruction of joints and bones, X ray photographs of four paws were taken (Softex), and severity of destruction in the second to fifth articulationes interphalangeae, first to fifth articulationes metacarpophalangeae and metatarsophalangeae, and calcaneus was scored by 0 or 1 in accordance with presence or absence of destruction, and the severity of destruction in the carpus and tarsal was scored by 0 to 3. […]

Row | SMILES | Cell viability (%) (mouse 3T3 fibroblast; 30 μg/ml test compound) | inhibition at 30 µg/mL [1] [%] | Joint-bone destruction score ([2]; X ray of four paws, control 20 ± 3) | Arthritis score ([2]; maximum score 12, control 10 ± 1) | Cell viability (%) (mouse 3T3 fibroblast; 100 μg/ml test compound) | inhibition at 100 µg/mL [1] [%]
1 | CC(C)c1ccc(OC2CCC3(CC2)SC(C)(C)[C@H](C(=O)O)N3C(=O)c2ccccc2)cc1 (stereo partly drawn) [20 (1), (3S)-4-Benzoyl-8-(4-isopropylphenoxy)-2,2-dimethyl-1-thia-4-azaspiro[4.5]decane-3-carboxylic acid] | 98 | 72 | 14 ± 3 | 8 ± 1 | – | –
2 | CC(C)c1ccc(OC2CCC3(CC2)SC(C)(C)[C@@H](C(=O)O)N3C(=O)c2ccccc2)cc1 (stereo partly drawn) [20 (2), (3R)-4-Benzoyl-8-(4-isopropylphenoxy)-2,2-dimethyl-1-thia-4-azaspiro[4.5]decane-3-carboxylic acid] | – | – | – | – | 92 | 93
3 | CC(C)c1ccc(OC2CCC3(CC2)SC[C@@H](C(=O)O)N3C(=O)c2cnc3ccccc3c2)cc1 (stereo partly drawn) [41 (2), (3R)-8-(4-Isopropylphenoxy)-4-(3-quinolylcarbonyl)-1-thia-4-azaspiro[4.5]decane-3-carboxylic acid] | – | – | – | – | 71 | 94
4 | Cc1nc(C(=O)N2[C@H](C(=O)O)CSC23CCC(Oc2ccc(C(C)C)cc2)CC3)cs1 (stereo partly drawn) [41 (3), (3R)-8-(4-Isopropylphenoxy)-4-[(2-methyl-1,3-thiazol-4-yl)carbonyl]-1-thia-4-azaspiro[4.5]decane-3-carboxylic acid] | – | – | – | – | 97 | 80
5 | CC(C)c1ccc(OC2CCC3(CC2)SC[C@@H](C(=O)O)N3C(=O)c2cnccn2)cc1 (stereo partly drawn) [41 (4), (3R)-8-(4-Isopropylphenoxy)-4-(2-pyrazinylcarbonyl)-1-thia-4-azaspiro[4.5]decane-3-carboxylic acid] | – | – | – | – | 82 | 96
6 | COc1ccc(C(=O)N2[C@H](C(=O)O)CSC23CCC(Oc2ccc(C(C)C)cc2)CC3)cc1 (stereo partly drawn) [41 (5), (3R)-8-(4-Isopropylphenoxy)-4-(4-methoxybenzoyl)-1-thia-4-azaspiro[4.5]decane-3-carboxylic acid] | – | – | – | – | 90 | 94
7 | CCN(CC)C(=O)c1ccc(C(=O)N2[C@H](C(=O)O)CSC23CCC(Oc2ccc(C(C)C)cc2)CC3)cc1 (stereo partly drawn) [41 (6), (3R)-4-{4-[(Diethylamino)carbonyl]benzoyl}-8-(4-isopropylphenoxy)-1-thia-4-azaspiro[4.5]decane-3-carboxylic acid] | – | – | – | – | 97 | 49
8 | CCOC(=O)[C@@H]1CSC2(CCC(Oc3ccc(C(C)C)cc3)CC2)N1C(=O)c1ccccc1 (stereo partly drawn) [Example 21, ethyl (3R)-4-benzoyl-8-(4-isopropylphenoxy)-1-thia-4-azaspiro[4.5]decane-3-carboxylate] | 74 | 28 | – | – | – | –
9 | CC(C)c1ccc(OC2CCC3(CC2)SC[C@@H](C(=O)NCCC(=O)O)N3C(=O)c2ccccc2)cc1 (stereo partly drawn) [Example 29, 3-({[(3R)-4-benzoyl-8-(4-isopropylphenoxy)-1-thia-4-azaspiro[4.5]-decan-3-yl]carbonyl}amino)-propionic acid] | – | – | – | – | 110 | 92
10 | CC(C)c1ccc(OC2CCC3(CC2)SC[C@@H](C(=O)O)N3C(=O)c2ccc[nH]2)cc1 (stereo partly drawn) [Example 40, (3R)-8-(4-isopropylphenoxy)-4-(1H-2-pyrrolylcarbonyl)-1-thia-4-azaspiro[4.5]decane-3-carboxylic acid] | – | – | – | – | 108 | 91
11 | CC(C)CC=C1CCC2(CC1)SC(C)(C)[C@@H](C(=O)O)N2C(=O)CCC(C)C (stereo partly drawn) [Example 44, (3R)-2,2-dimethyl-8-(3-methylbutylidene)-4-(4-methylpentanoyl)-1-thia-4-azaspiro[4.5]decane-3-carboxylic acid] | 75 | 62 | – | – | – | –
12 | CC(C)CC=C1CCC2(CC1)SC(CC(=O)OC(C)C)C(=O)N2CC(=O)O (centres unmarked) [Example 47, 2-[2-(2-isopropoxy-2-oxoethyl)-8-(3-methylbutylidene)-3-oxo-1-thia-4-azaspiro[4.5]decan-4-yl]-acetic acid] | 83 | 47 | – | – | – | –
